# Test results: patent US6193954A, “Formulations for pulmonary delivery of dopamine agonists” (Abbott Laboratories, priority 1997, dated 2001)
# Where a name gives a salt, the structure may show the parent alone.
# Assays:
# [1] = Dispersion quality of MDI formulations (visual suspension quality after 24 hours); format: physicochemical; conditions: HFC-134a
# Procedure: A determination of the dispersion quality of several MDI formulations prepared with HFA-134a was conducted as follows: Pluronic® L44 (BASF Corp., Parsippany, N.J.), drug and excipients being formulated were combined in the amounts shown in appropriate transparent aerosol containers (vials). The vials were crimped using a 100 μL Valois metered valve and charged with approximately 10 mL of HFC-134a. The container was shaken for about 30 minutes to blend the ingredients. The dispersion quality in each preparation was evaluated visually after 24 hours using the following criteria:
# Poor: Phase separation; top phase clear, bottom phase containing solids
# Fair: Partial phase separation; cloudiness in the top phase
# Good: Grainy appearance; no phase separation
# Excellent: Milky homogeneous appearance; no phase separation
# [2] = Bioavailability of MDI compositions in dogs, inhalation vs intravenous (plasma diol); format: in vivo, beagle dog; conditions: dog
# Excerpt: The aerosol sprays were delivered anteriorly via a tracheal stoma in each subject animal (beagle dog).
# [3] = Intratracheal administration of liquid formulation to tracheotomized dogs; format: in vivo; conditions: 0.1 mg/kg (approximately 0.5 ml), mannitol/water solution
# Procedure: The viscosity of the administered solution was similar to water and the dose was squirted into the tube via pressure from a syringe filled with the liquid formulation. This formlation would not be administered through nasal or mouth means.
# The solution used in the intratracheal administration contained the following:
# Compound of example 1 6.9 mg/ml
# with water for Injection as the solvent.
# The above percentages may be varied by one of ordinary skill in the art to provide various dosages and/or ratios of the above excipients or compounds.
smiles,measurement,setting,value
"CCCc1cc2c(s1)CN[C@@H]1CCc3cc(OC(C)=O)c(OC(C)=O)cc3[C@@H]21 [Compound of Example 1, (5aR-trans)-4,5,6,7,11b-hexahydro-2-propylbenzo[f]thieno[2,3-c]quinoline-9,10-diol, diacetate (ester) hydrochloride]",Suspension Quality,"[1]; 20 mg drug, 0 Pluronic L44, 0 tocopherol acetate",good
same,Suspension Quality,"[1]; 20 mg drug, 3 Pluronic L44, 0 tocopherol acetate",good
same,Suspension Quality,"[1]; 20 mg drug, 3 Pluronic L44, 2 mg tocopherol acetate",good
same,Suspension Quality,"[1]; 20 mg drug, 5 Pluronic L44, 0 tocopherol acetate",good
same,Suspension Quality,"[1]; 20 mg drug, 5 Pluronic L44, 2 mg tocopherol acetate",good
same,Suspension Quality,"[1]; 40 mg drug, 0 Pluronic L44, 0 tocopherol acetate",good
same,Suspension Quality,"[1]; 40 mg drug, 3 Pluronic L44, 0 tocopherol acetate",good
same,Suspension Quality,"[1]; 40 mg drug, 3 Pluronic L44, 2 mg tocopherol acetate",good
same,Suspension Quality,"[1]; 40 mg drug, 5 Pluronic L44, 0 tocopherol acetate",good
same,Suspension Quality,"[1]; 40 mg drug, 5 Pluronic L44, 2 mg tocopherol acetate",good
same,lung absorption following inhalation delivery vs I.V. administration,[2]; inhalation,occurs more efficiently than I.V. administration
same,absorption upon delivery to the lungs,[2]; suspended in HFC-134a,well absorbed upon delivery to the lungs
same,delivery on intratracheal administration,[3],effectively delivered
